ChEMBL document CHEMBL1142398, “Chemical stability of the peroxide bond enables diversified synthesis of potent tetraoxane antimalarials” (J Med Chem, 2008)

What was measured:
Plasmodium falciparum [1] = assay: microbe, parasite or virus in culture; conditions: D6
Description: Antimalarial activity against Plasmodium falciparum D6

Plasmodium falciparum [2] = assay: microbe, parasite or virus in culture; conditions: W2
Description: Antimalarial activity against Plasmodium falciparum W2

Plasmodium falciparum [3] = assay: microbe, parasite or virus in culture; conditions: TM91C235
Description: Antimalarial activity against multidrug-resistant Plasmodium falciparum TM91C235

[4] = Metabolic stability assessed as half life in human liver microsomes; type: ADME, Microsome
[5] = Metabolic stability assessed as half life in mouse liver microsomes; type: ADME, Microsome
Plasmodium berghei [6] = assay: Antimalarial activity against Plasmodium berghei KBG173 infected CD1 mice (Mus musculus) on subcutaneous dose after 3-5 days; type: functional
Plasmodium berghei [7] = assay: Antimalarial activity against Plasmodium berghei KBG173 infected CD1 mice (Mus musculus) at 300 mg/kg/day subcutaneous dose as survival time after 3-5 days; type: functional
Plasmodium berghei [8] = assay: Antimalarial activity against Plasmodium berghei KBG173 infected CD1 mice (Mus musculus) at 150 mg/kg/day subcutaneous dose as survival time after 3-5 days; type: functional
Plasmodium berghei [9] = assay: Antimalarial activity against Plasmodium berghei KBG173 infected CD1 mice (Mus musculus) at 37.5 mg/kg/day subcutaneous dose as survival time after 3-5 days; type: functional
Plasmodium berghei [10] = assay: Antimalarial activity against Plasmodium berghei KBG173 infected CD1 mice (Mus musculus) at 9.3 mg/kg/day subcutaneous dose as survival time after 3-5 days; type: functional
[11] = Antiproliferative activity against human HL60(TB) cells after 48 hrs; type: functional, HL-60(TB); conditions: HL-60, 48 h
MOLT-4 = assay: Antiproliferative activity against human MOLT4 cells after 48 hrs; type: functional; conditions: MOLT-4, 48 h
SR = assay: Antiproliferative activity against human SR cells after 48 hrs; type: functional
EKVX = assay: Antiproliferative activity against human EKVX cells after 48 hrs; type: functional
HOP-92 = assay: Antiproliferative activity against human HOP92 cells after 48 hrs; type: functional; conditions: HOP-92, 48 h
NCI-H460 = assay: Antiproliferative activity against human NCI-H460 cells after 48 hrs; type: functional; conditions: NCI-H460, 48 h
SF-295 = assay: Antiproliferative activity against human SF295 cells after 48 hrs; type: functional; conditions: SF-295, 48 h
SF-539 = assay: Antiproliferative activity against human SF539 cells after 48 hrs; type: functional; conditions: SF-539, 48 h
U-251 = assay: Antiproliferative activity against human U251 cells after 48 hrs; type: functional; conditions: U-251, 48 h
LOX IMVI = assay: Antiproliferative activity against human LOXIMVI cells after 48 hrs; type: functional
SK-MEL-2 = assay: Antiproliferative activity against human SKMEL2 cells after 48 hrs; type: functional; conditions: SK-MEL-2, 48 h
IGROV-1 = assay: Antiproliferative activity against human IGROV1 cells after 48 hrs; type: functional; conditions: IGROV-1, 48 h
786-0 = assay: Antiproliferative activity against human 786-0 cells after 48 hrs; type: functional; conditions: 786-0, 48 h
UO-31 = assay: Antiproliferative activity against human UO31 cells after 48 hrs; type: functional; conditions: UO-31, 48 h
PC-3 = assay: Antiproliferative activity against human PC3 cells after 48 hrs; type: functional; conditions: PC-3, 48 h
DU-145 = assay: Antiproliferative activity against human DU145 cells after 48 hrs; type: functional; conditions: DU-145, 48 h
NCI/ADR-RES = assay: Antiproliferative activity against human NCI/ADR-RES cells after 48 hrs; type: functional
T47D = assay: Antiproliferative activity against human T47D cells after 48 hrs; type: functional
CCRF-CEM = assay: Antiproliferative activity against human CCRF-CEM cells after 48 hrs; type: functional
[12] = read-out: LC50 (the source's name)

## CCCNC(=O)C1CCC2(CC1)OOC1(CCCCC1)OO2
Plasmodium falciparum [1]
  IC50: 19.3 nM
  IC90: 49.2 nM
Plasmodium falciparum [2]
  IC50: 22 nM
  IC90: 44.5 nM
Plasmodium falciparum [3]
  IC50: 25.3 nM
  IC90: 53.9 nM

## CC(=O)O[C@H]1C[C@H]2[C@@H]([C@H](OC(C)=O)C[C@@H]3CC4(CC[C@@]32C)OOC2(CCCCC2)OO4)[C@@H]2CC[C@H]([C@H](C)CCCO)[C@@]12C
Plasmodium falciparum [1]
  IC50: 15.6 nM
  IC90: 28.7 nM
Plasmodium falciparum [2]
  IC50: 9.77 nM
  IC90: 24.2 nM
Plasmodium falciparum [3]
  IC50: 18.1 nM
  IC90: 27.2 nM

## CC(=O)OCCC[C@@H](C)[C@H]1CC[C@H]2[C@@H]3[C@H](OC(C)=O)C[C@@H]4CC5(CC[C@]4(C)[C@H]3C[C@H](OC(C)=O)[C@]12C)OOC1(CCCCC1)OO5
Plasmodium falciparum [1]
  IC50: 15.9 nM
  IC90: 28.4 nM
Plasmodium falciparum [2]
  IC50: 11.6 nM
  IC90: 26.3 nM
Plasmodium falciparum [3]
  IC50: 19.2 nM
  IC90: 29.3 nM

## COC(=O)CC[C@@H](C)[C@H]1CC[C@H]2[C@@H]3[C@H](OC(C)=O)C[C@@H]4CC5(CC[C@]4(C)[C@H]3C[C@H](OC(C)=O)[C@]12C)OOC1(CCCCC1)OO5
Plasmodium falciparum [1]
  IC50: 21.5 nM
Plasmodium falciparum [2]
  IC50: 17 nM

## CCCNCCC[C@@H](C)[C@H]1CC[C@H]2[C@@H]3[C@H](OC(C)=O)C[C@@H]4CC5(CC[C@]4(C)[C@H]3C[C@H](OC(C)=O)[C@]12C)OOC1(CCCCC1)OO5
[4]
  half-life: > 1 h
[5]
  half-life: > 1 h
Plasmodium falciparum [1]
  IC50: 24.1 nM
  IC90: 49.3 nM
Plasmodium falciparum [2]
  IC50: 11.1 nM
  IC90: 26.9 nM
Plasmodium falciparum [3]
  IC50: 20.8 nM
  IC90: 73.9 nM

## NCC1CCC2(CC1)OOC1(CCCCC1)OO2
Plasmodium berghei [6]
  MCD: <=37.5 mg/kg/day
Plasmodium berghei [7]
  Survival: >31 days
Plasmodium berghei [8]
  Survival: >31 days
Plasmodium berghei [9]
  Survival: 24.6 days
Plasmodium berghei [10]
  Survival: 16.6 days
Plasmodium falciparum [1]
  IC50: 12.8 nM
  IC90: 24.1 nM
Plasmodium falciparum [2]
  IC50: 7.79 nM
  IC90: 16 nM
Plasmodium falciparum [3]
  IC50: 19.8 nM
  IC90: 29 nM

## OCC1CCC2(CC1)OOC1(CCCCC1)OO2
Plasmodium falciparum [1]
  IC50: 15.2 nM
  IC90: 22.5 nM
Plasmodium falciparum [2]
  IC50: 6.54 nM
  IC90: 11.6 nM
Plasmodium falciparum [3]
  IC50: 12.6 nM
  IC90: 23.7 nM

## NC(=O)C1CCC2(CC1)OOC1(CCCCC1)OO2
Plasmodium falciparum [1]
  IC50: 24 nM
  IC90: 42.8 nM
Plasmodium falciparum [2]
  IC50: 20.2 nM
  IC90: 40.4 nM
Plasmodium falciparum [3]
  IC50: 27.2 nM
  IC90: 55.6 nM

## CC(=O)O[C@H]1C[C@H]2[C@@H]([C@H](OC(C)=O)C[C@@H]3CC4(CC[C@@]32C)OOC2(CCCCC2)OO4)[C@@H]2CC[C@H]([C@H](C)CCCN=[N+]=[N-])[C@@]12C
Plasmodium falciparum [1]
  IC50: 8.6 nM
  IC90: 13.3 nM
Plasmodium falciparum [2]
  IC50: 6.3 nM
  IC90: 21.6 nM
Plasmodium falciparum [3]
  IC50: 13.9 nM
  IC90: 20.6 nM

## C[C@H](CCCO)[C@H]1CC[C@H]2[C@@H]3[C@H](O)C[C@@H]4CC5(CC[C@]4(C)[C@H]3C[C@H](O)[C@]12C)OOC1(CCCCC1)OO5
[11]
  GI50: 150 nM
  TGI: 310 nM
[11]; [12]
  CC50: 620 nM
MOLT-4
  GI50: 180 nM
  TGI: 410 nM
MOLT-4; [12]
  CC50: 960 nM
SR
  GI50: 160 nM
  TGI: 340 nM
SR; [12]
  CC50: 720 nM
EKVX
  GI50: 140 nM
  TGI: 310 nM
EKVX; [12]
  CC50: 650 nM
HOP-92
  GI50: 140 nM
  TGI: 320 nM
HOP-92; [12]
  CC50: 730 nM
NCI-H460
  GI50: 240 nM
  TGI: 620 nM
NCI-H460; [12]
  CC50: 2680 nM
SF-295
  GI50: 170 nM
  TGI: 330 nM
SF-295; [12]
  CC50: 660 nM
SF-539
  GI50: 170 nM
  TGI: 320 nM
SF-539; [12]
  CC50: 590 nM
U-251
  GI50: 210 nM
  TGI: 460 nM
U-251; [12]
  CC50: 980 nM
LOX IMVI
  GI50: 20 nM
  TGI: 30 nM
LOX IMVI; [12]
  CC50: 60 nM
SK-MEL-2
  GI50: 200 nM
  TGI: 390 nM
SK-MEL-2; [12]
  CC50: 730 nM
IGROV-1
  GI50: < 10 nM
  TGI: 10 nM
IGROV-1; [12]
  CC50: 60 nM
786-0
  GI50: 230 nM
  TGI: 540 nM
786-0; [12]
  CC50: 2010 nM
UO-31
  GI50: 40 nM
  TGI: 170 nM
UO-31; [12]
  CC50: 610 nM
PC-3
  GI50: 290 nM
  TGI: 990 nM
PC-3; [12]
  CC50: 3410 nM
DU-145
  GI50: 110 nM
  TGI: 230 nM
DU-145; [12]
  CC50: 480 nM
NCI/ADR-RES
  GI50: 250 nM
  TGI: 590 nM
NCI/ADR-RES; [12]
  CC50: 4270 nM
T47D
  GI50: 330 nM
  TGI: 930 nM
T47D; [12]
  CC50: 5300 nM
CCRF-CEM
  GI50: 100 nM
  TGI: 240 nM
CCRF-CEM; [12]
  CC50: 560 nM
Plasmodium falciparum [1]
  IC50: 130 nM
  IC90: 623 nM
Plasmodium falciparum [2]
  IC50: 109 nM
  IC90: 298 nM
Plasmodium falciparum [3]
  IC50: 166 nM
  IC90: 340 nM
